Active and inactive are the calls of the source.
Columns and labels:
[1] = A cytotoxicity screen of small molecule inhibitors of the PhoP region in Salmonella typhi identified in the primary screen. [Related pubchem assays: 1850, 1864, 1985 ]; format: functional
ORF 73 = ORF 73 (Human herpesvirus 8, UniProt O40947); assay: inhibitors of C-LANA binding to LBS DNA, dose response, biochemical, fluorescence polarization, cherry-picked samples (AID 504725); set-up: species or system Human gammaherpesvirus 8;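 further: fluorescence polarization of a labeled DNA duplex reporting LANA DNA binding; potency is for inhibitors that block LANA binding to the DNA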
[2] = target: T1, Voltage-gated N-type calcium channel alpha-1B subunit/Amyloid beta A4 precursor protein-binding family A member 1 (Homo sapiens, UniProt Q00975+Q02410); format: protein assay
T1 sequence (Q00975 whole entry): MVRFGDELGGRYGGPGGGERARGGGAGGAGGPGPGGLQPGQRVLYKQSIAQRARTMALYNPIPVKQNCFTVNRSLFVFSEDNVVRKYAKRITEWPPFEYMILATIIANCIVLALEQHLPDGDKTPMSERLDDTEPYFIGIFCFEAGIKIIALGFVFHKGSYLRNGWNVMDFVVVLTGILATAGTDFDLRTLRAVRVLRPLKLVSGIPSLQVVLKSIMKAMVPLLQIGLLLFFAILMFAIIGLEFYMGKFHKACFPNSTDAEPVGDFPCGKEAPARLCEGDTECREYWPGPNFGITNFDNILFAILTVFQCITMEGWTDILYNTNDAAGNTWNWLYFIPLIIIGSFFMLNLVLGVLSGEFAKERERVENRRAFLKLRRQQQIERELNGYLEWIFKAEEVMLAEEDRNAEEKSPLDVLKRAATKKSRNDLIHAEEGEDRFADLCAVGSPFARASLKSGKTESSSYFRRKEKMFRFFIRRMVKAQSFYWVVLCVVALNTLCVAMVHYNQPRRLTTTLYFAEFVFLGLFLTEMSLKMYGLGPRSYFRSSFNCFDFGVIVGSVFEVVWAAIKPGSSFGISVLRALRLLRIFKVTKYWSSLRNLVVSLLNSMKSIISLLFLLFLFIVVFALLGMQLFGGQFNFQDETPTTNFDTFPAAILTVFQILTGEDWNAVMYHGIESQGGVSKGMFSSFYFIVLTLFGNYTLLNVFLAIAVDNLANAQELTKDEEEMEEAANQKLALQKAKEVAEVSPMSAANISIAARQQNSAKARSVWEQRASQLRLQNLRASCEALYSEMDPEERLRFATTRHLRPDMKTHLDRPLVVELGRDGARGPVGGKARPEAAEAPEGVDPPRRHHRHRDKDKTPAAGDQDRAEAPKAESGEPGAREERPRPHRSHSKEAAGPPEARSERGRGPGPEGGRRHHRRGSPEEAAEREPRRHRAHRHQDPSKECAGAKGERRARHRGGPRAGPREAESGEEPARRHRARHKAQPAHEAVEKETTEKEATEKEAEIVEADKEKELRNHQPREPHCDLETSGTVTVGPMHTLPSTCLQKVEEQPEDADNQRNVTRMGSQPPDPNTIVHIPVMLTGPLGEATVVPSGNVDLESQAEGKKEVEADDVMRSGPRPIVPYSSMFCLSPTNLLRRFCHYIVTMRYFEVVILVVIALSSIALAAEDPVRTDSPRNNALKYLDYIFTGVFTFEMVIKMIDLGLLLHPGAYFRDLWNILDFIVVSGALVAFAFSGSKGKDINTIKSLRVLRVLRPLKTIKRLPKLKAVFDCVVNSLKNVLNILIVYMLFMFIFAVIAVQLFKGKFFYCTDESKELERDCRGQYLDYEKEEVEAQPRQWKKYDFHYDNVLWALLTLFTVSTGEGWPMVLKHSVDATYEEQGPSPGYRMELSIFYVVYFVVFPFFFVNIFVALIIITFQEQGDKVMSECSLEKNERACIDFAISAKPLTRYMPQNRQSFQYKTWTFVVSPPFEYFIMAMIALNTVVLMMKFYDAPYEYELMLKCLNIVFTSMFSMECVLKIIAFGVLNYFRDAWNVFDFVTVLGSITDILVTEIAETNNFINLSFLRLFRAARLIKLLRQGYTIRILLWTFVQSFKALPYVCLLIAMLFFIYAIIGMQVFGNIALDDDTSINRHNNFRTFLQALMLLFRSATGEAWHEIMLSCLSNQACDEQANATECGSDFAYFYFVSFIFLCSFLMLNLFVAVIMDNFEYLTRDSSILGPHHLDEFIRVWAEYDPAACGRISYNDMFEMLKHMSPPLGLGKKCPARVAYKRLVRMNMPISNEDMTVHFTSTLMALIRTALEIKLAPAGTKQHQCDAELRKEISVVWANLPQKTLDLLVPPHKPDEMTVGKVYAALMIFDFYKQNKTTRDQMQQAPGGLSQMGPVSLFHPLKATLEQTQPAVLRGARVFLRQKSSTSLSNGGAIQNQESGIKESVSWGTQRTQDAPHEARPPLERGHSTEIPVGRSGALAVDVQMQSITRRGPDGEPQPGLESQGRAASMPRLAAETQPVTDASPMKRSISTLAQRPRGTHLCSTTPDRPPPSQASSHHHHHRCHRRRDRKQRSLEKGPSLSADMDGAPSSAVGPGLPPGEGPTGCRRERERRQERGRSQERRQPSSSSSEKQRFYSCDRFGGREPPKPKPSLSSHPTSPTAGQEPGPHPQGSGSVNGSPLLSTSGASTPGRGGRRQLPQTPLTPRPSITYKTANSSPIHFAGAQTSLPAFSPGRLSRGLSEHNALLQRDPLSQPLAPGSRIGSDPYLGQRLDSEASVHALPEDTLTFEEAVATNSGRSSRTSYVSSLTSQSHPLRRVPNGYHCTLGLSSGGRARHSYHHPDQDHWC
T1 sequence (Q02410 whole entry): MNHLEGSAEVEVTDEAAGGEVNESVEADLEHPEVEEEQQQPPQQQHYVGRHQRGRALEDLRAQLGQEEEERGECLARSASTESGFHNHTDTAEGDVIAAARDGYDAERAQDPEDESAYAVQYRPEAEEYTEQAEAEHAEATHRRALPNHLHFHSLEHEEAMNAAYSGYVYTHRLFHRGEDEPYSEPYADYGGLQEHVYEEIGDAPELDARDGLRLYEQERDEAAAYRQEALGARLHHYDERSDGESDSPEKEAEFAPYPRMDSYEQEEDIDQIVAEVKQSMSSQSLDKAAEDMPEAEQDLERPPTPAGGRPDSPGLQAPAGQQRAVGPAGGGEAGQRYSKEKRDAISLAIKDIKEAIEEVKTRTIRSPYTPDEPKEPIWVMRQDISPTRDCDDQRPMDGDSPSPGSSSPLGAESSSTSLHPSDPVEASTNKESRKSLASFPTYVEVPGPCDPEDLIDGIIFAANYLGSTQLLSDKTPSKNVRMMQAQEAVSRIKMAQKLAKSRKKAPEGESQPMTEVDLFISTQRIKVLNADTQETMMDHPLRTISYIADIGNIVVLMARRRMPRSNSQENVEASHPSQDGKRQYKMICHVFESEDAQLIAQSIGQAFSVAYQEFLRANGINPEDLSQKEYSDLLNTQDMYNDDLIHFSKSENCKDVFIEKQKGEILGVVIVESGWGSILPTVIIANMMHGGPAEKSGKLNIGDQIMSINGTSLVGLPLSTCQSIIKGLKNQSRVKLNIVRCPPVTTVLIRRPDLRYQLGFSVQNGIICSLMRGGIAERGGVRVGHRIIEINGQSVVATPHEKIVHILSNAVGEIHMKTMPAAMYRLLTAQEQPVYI

NS3 = NS3 (Hepatitis C virus, UniProt A3EZJ3); assay: PubChem AID 2173; set-up: species or system Hepacivirus hominis
[3] = target: T1, Voltage-gated N-type calcium channel alpha-1B subunit/Amyloid beta A4 precursor protein-binding family A member 1; format: protein assay; remark: listed apart in the source
[4] = inhibitors of Bluetongue virus cytopathic effect, confirmation, arbovirus, BSR cells (AID 1250); format: functional;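 further: protection from viral cytopathic effect measured as cell viability by ATP luminescence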
[5] = target: Induced myeloid leukemia cell differentiation protein Mcl-1 (Homo sapiens, UniProt Q07820); format: functional
Induced myeloid leukemia cell differentiation protein Mcl-1, sequence (Q07820 whole entry): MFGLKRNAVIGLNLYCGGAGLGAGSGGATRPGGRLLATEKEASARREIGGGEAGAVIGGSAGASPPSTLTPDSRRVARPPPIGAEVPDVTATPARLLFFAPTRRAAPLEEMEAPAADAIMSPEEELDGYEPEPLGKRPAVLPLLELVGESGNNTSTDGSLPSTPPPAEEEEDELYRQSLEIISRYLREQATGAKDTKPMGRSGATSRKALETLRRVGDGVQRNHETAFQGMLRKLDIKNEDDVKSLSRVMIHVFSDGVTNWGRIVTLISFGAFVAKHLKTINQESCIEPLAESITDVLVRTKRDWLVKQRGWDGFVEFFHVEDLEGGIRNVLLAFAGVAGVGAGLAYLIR

[6] = target: Eukaryotic translation initiation factor 4E (Mus musculus, UniProt P63073); assay: eIF4E–eIF4G protein interaction inhibitors, dose response, biochemical, TR-FRET (AID 855); format: functional;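 further: potency for disrupting eIF4E binding to eIF4GI seen as loss of FRET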
Cytochrome P450 2C9 = Cytochrome P450 2C9 (Homo sapiens, UniProt P11712); details: Potency
Cytochrome P450 2C9, sequence (P11712 whole entry): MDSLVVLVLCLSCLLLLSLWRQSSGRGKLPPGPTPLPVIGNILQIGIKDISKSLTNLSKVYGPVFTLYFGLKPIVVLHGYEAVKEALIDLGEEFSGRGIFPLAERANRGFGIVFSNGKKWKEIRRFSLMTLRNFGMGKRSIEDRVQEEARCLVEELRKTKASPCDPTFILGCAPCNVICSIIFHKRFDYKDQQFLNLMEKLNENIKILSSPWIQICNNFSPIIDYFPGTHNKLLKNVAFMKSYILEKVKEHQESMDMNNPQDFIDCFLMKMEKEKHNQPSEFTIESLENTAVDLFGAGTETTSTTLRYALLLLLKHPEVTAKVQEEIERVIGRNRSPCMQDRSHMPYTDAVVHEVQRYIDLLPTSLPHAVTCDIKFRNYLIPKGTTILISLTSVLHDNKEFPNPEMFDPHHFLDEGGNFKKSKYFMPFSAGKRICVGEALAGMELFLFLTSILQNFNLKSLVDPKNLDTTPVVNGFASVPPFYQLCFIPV

Cytochrome P450 2C19 = Cytochrome P450 2C19 (Homo sapiens, UniProt P33261); assay: qHTS Assay for Inhibitors and Substrates of Cytochrome P450 2C19. [Related pubchem assays: 410 ]; format: ADME; details: read-out: Potency
Cytochrome P450 2C19, sequence (P33261 whole entry): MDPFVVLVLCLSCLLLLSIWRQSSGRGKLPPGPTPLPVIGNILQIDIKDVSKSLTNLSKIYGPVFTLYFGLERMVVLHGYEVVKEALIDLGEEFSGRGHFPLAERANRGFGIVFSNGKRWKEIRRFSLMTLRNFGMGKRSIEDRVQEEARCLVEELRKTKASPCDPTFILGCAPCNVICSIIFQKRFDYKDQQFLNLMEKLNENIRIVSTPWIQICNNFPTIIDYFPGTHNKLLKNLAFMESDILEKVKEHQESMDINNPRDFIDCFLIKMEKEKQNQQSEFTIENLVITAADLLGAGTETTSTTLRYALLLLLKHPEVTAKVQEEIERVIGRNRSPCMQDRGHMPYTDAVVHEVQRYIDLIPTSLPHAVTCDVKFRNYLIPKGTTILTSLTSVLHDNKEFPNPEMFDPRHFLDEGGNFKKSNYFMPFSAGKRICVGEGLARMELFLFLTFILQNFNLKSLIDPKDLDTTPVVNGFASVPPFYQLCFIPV

Cytochrome P450 3A4 = Cytochrome P450 3A4 (Homo sapiens, UniProt P08684); details: Potency;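 further: confirmatory qHTS run detecting inhibitors and substrates of CYP3A4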
[7] = target: Melanin-concentrating hormone receptor 1 (Homo sapiens, UniProt Q99705); assay: Fluorescence-based counterscreen for antagonists of the G-protein coupled receptor 7 (GPR7): cell-based high throughput dose response assay to identify antagonists of the melanin-concentrating hormone receptor 1 (MCHR1).; format: functional
[8] = target: Neurotensin receptor type 1 (Homo sapiens, UniProt P30989); format: functional;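 further: Image-based confirmatory dose-response assay measuring agonist activity at NTR1; NTR1-expressing U2OS osteosarcoma cells imaged for beta-arrestin GFP spot formation; agonist potency where compounds increase beta-arrestin recruitment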
CHO = assay: cytotoxicity in TLR9-MyD88 CHO cells, dose response, cytotoxicity control for TLR9-MyD88 binding inhibitor project, cell-based, luminescence (AID 588339); format: functional, hamster; details: Cricetulus griseus;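 further: CHO cells stably coexpressing TLR9 and MyD88 fusions from primary screen; compound exposure lasted 48 hours before viability readout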
Beta Lactamase = Beta Lactamase (Pseudomonas aeruginosa, UniProt Q932Y6); assay: beta-lactamase reporter inhibitor potency, dose response, artefact control for TLR9-MyD88 binding inhibitor project, BLA reporter cells, FRET fluorescence (AID 588341); format: cell-based;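 further: cell based assay in CHO-K1 cells stably expressing beta-lactamase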
INS1 = assay: beta cell apoptosis inhibitors, cytokine rescue, dose response, luminescence, retest (AID 449756); format: functional, cell-based; details: Rattus norvegicus;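 further: cell death triggered by IL-1 beta plus TNF-alpha plus IFN-gamma mixture; protective hits raise ATP signal compared with cytokine alone wells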
[9] = MDA-MB-231 cell growth inhibition, dose response, cytotoxicity control for RAD54 inhibitor project, CellTiter-Glo luminescence, cherry-pick (AID 651692); format: functional, cell-based
[10] = target: T2, DNA repair and recombination protein RAD54-like (Homo sapiens, UniProt Q92698); assay: inhibitors of human RAD54 branch migration, confirmation, biochemical, fluorescence, cherry-picked samples, dose series (AID 651657); format: functional
T2 sequence (Q92698 whole entry): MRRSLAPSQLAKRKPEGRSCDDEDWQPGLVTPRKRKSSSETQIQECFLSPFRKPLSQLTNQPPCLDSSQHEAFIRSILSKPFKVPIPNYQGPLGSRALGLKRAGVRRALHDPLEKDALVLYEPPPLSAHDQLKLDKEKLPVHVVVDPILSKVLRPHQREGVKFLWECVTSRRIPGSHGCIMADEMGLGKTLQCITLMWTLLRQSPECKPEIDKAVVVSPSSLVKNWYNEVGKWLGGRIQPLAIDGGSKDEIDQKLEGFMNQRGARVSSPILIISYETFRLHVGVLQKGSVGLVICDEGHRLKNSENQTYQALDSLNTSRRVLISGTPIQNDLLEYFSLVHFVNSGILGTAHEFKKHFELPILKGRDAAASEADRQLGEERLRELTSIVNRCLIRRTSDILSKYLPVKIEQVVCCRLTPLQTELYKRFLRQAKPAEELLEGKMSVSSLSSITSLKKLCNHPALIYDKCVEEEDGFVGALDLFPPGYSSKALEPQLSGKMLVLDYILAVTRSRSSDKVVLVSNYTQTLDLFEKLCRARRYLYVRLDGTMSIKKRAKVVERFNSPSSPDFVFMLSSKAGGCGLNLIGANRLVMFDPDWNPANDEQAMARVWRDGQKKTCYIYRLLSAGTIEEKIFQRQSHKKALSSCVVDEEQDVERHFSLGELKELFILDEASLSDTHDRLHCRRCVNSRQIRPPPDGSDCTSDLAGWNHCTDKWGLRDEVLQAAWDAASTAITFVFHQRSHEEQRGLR

[11] = target: SWI/SNF-related matrix-associated actin-dependent regulator of chromatin subfamily A member 2 (Homo sapiens, UniProt P51531); assay: Luminescence-based cell-based high throughput dose response assay to identify activators of the function of SWI/SNF related, matrix associated, actin dependent regulator of chromatin, subfamily a, member 2 (SMARCA2, BRM).; format: functional
[12] = Counterscreen for activators of the function of SWI/SNF related, matrix associated, actin dependent regulator of chromatin, subfamily a, member 2 (SMARCA2, BRM): Luminescence-based cell-based high throughput dose response assay to identify non-selective compounds using the VP16 reporter assay.; format: functional
Paired box protein Pax-8 = Paired box protein Pax-8 (Homo sapiens, UniProt Q06710); assay: inhibitors of PAX8-driven TPO luciferase reporter, dose response, RMG-I cells, cherry-pick (AID 687027); format: functional, cell-based;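 further: luciferase reporter driven by Pax8 target thyroperoxidase promoter measured by SteadyGlo luminescence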
[13] = non-specific cell cytotoxicity, dose response, cytotoxicity control for PAX8 inhibitor project, plate reader, dry powder samples (AID 743021); format: functional, cell-based
HeLa = assay: HeLa cell cytotoxicity, dose response, cytotoxicity control, 24 h, cherry-picked samples (AID 504726); format: functional, cell-based; details: Homo sapiens;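 further: potency for cytotoxicity as loss of luminescence signal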
[14] = target: DNA dC->dU-editing enzyme APOBEC-3A (Homo sapiens, UniProt P31941); assay: APOBEC3A DNA deaminase inhibitors, dose response, biochemical (AID 504722); format: functional
[15] = target: DNA dC->dU-editing enzyme APOBEC-3G (Homo sapiens, UniProt Q9HC16); assay: Dose Response confirmation of small molecule APOBEC3G DNA Deaminase Inhibitors via a fluorescence-based single-stranded DNA deaminase assay. [Related pubchem assays (depositor defined):AID493012, AID493028]; format: functional
DNA dC->dU-editing enzyme APOBEC-3G, sequence (Q9HC16 whole entry): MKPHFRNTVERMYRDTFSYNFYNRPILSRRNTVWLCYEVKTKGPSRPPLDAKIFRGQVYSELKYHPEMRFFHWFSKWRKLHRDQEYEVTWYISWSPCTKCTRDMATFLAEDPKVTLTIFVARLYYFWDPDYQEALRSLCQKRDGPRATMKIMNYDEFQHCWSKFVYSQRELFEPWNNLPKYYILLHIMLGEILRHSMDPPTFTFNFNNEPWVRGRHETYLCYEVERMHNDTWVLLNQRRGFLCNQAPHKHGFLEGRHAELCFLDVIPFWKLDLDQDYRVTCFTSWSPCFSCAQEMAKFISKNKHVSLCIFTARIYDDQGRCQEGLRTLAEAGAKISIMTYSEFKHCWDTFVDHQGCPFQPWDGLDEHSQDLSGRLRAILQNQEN

NC1=NC2(CCCCC2)n2c(nc3ccccc32)N1
EC50 [1]: > 50 µM (active)

O=c1ccc2cc3c4c(c2o1)CCCN4CCC3
AC50 (ORF 73): 12.6 µM (active)

Cc1ccc(-n2cccc2/C=C2\C(=N)N3N=C(c4ccco4)SC3=NC2=O)cc1
IC50 [2]: 8.99 µM (active)
IC50 (NS3): 5.31 µM (active)
IC50 [3]: > 50 µM (inactive)
IC50 [4]: 26 µM (active)
IC50 [5]: 1.7 µM (active)
IC50 [6]: 50 µM (inactive)

CC(=O)c1ccc(OCc2ccccc2)c(C)c1O
AC50 (Cytochrome P450 2C9): 2 µM (inconclusive)

COc1ccc(OC2C=CC(C#Cc3ccc(C(C)(C)C)cc3)OC2CO)cc1 (configuration not stated)
AC50 (Cytochrome P450 2C19): 2.51 µM (inconclusive)
AC50 (Cytochrome P450 3A4): 3.98 µM (inconclusive)
AC50 (Cytochrome P450 2C9): 0.398 µM (inconclusive)

COc1cccc(CC2(CO)CCCN(Cc3c(C)cc(C)cc3-n3cccn3)C2)c1 (configuration not stated)
IC50 [7]: 12.6 µM (not active)

COc1ccc(Cn2cc3c(-c4ccc(F)cc4)nnc-3c3cc(OC)c(OC)cc32)cc1
EC50 [8]: 5.72 µM (active)
IC50 (CHO): 11.9 µM (inactive)
IC50 (Beta Lactamase): 5.58 µM (active)
AC50 (INS1): 6.94 µM (active)
AC50 [9]: 15.3 µM (active)
AC50 [10]: 7.21 µM (active)
EC50 [11]: > 91.2 µM (inactive)
EC50 [12]: > 91.2 µM (inactive)
AC50 (Paired box protein Pax-8): 12.9 µM (active)
AC50 [13]: 29.5 µM (active)

O=S(=O)(Nc1ncccn1)c1ccc(NC(=S)Nc2cccc(Cl)c2)cc1
EC50 [1]: > 50 µM (active)

CC(Sc1ncccn1)C(=O)NNC(=O)c1cccc(Cl)c1 (configuration not stated)
AC50 (HeLa): 46.6 µM (active)

Sc1nnc(-c2cccnc2)n1/N=C/C=C/c1ccccc1
IC50 [14]: > 100 µM (inactive)
IC50 [15]: 2.33 µM (active)

From ChEMBL document CHEMBL1201862, “PubChem BioAssay data set” (2004)
